{"source": "patent EP1285919A1", "about": "“C10 Carbonate substituted taxanes as antitumor agents” (Florida State University Research Foundation, Inc., priority 2001, dated 2003)", "key": {"[1]": {"system": "DU 145 Human Prostrate Carcinoma Xenografts", "assay": "In vivo evaluation against DU145 prostate carcinoma xenografts", "description": "In Vivo Evaluation of Antitumor Compounds Against DU 145 Human Prostrate Carcinoma Xenografts\n(§1) Antitumor compounds were prepared in a vehicle of 5% ethanol, 5% Cremophor and 90% isotonic saline in the manner as described for Solution 1 of Example 10. Taxol (paclitaxel; Bristol Meyers Squibb) was obtained as the marketed pharmaceutical drug. The dosing volume was 0.3 ml per 20 g mouse.\nMale NCr-nude mice were implanted subcutaneously with 1 mm^3 DU145 prostate carcinoma fragments in the flank and sorted into treatment groups of five mice each. […] Dosing was initiated on Day 1. The antitumor compounds were given i.v. at an estimated maximum tolerated dose (MTD) appropriate for each agent on a qd x 1 schedule (single administration of compound). The i.v. Taxol was given on the qd x 1 schedule as two split doses (one hour between) of 12 mg/kg per split dose (total dose = 24 mg/kg). Taxol was also administered intraperitoneally (i.p.) on a qd x 5 schedule at a daily dose of 18 mg/kg. The vehicle was administered i.v. to control mice in Group 1 on the qd x 1 schedule. The study was terminated on Day 91. Treatment groups are detailed in Table 3.\nThe mean days of survival is the number of days after which a neoplasm reached a size of 1.5 g and the animal was euthanized. A complete response is obtained […]. […]"}, "[2]": {"system": "Panc-1 Human Pancreatic Carcinoma", "assay": "In vivo evaluation against Panc-1 pancreatic carcinoma xenografts", "conditions": "for MDS (n): 1.5 g endpoint", "description": "In Vivo Evaluation of Antitumor Compounds Against Panc-1 Human Pancreatic Carcinoma\nas §1\nFemale NCr-nude mice were implanted subcutaneously with 1 mm^3 Panc-1 pancreatic carcinoma fragments in the flank and sorted into treatment groups of six mice each. […] Dosing was initiated on Day 1. The antitumor compounds were given i.v. at an estimated maximum tolerated dose (MTD) appropriate for each agent on a qd x 1 schedule (single administration of compound). The i.v. taxol was given on the qd x 1 schedule as two split doses (one hour between) of 12 mg/kg per split dose (total dose = 24 mg/kg). Taxol was also administered at a dose of 15 mg/kg i.p. on a qd x 5 schedule. The vehicle was administered i.v. to control mice in Group 1 on the qd x 1 schedule. The study was terminated on Day 63. Treatment groups are detailed in Table 9.\nThe results are summarized in Table 10 and include mean days of survival (MDS), number of toxic deaths, number of survivors, number of complete or partial responses, and number with stable disease. The mean days of survival is the number of days after which a neoplasm reached a size of 1.5 g and the animal was euthanized. A complete response is obtained […]. […]"}, "[3]": {"system": "SK-MES carcinoma", "description": "In Vivo Evaluation of Antitumor Compounds Against Human Lung Carcinoma Xenografts\nThe compounds were prepared in the manner as described for Solution 2 of Example 10. Taxol (paclitaxel, Bristol Meyers Squibb), used as a control, was obtained as the marketed pharmaceutical drug.\nTaxol itself was given as a split i.v. dose of 36 mg/kg, with the two 18 mg/kg doses separated by one hour. Vehicle control animals were dosed twice intravenously with half the total volume being given separated by one hour. The study was terminated on Day 60.\nThe results are summarized in Table 1 and include mean days of survival (MDS), number of toxic deaths, number of survivors, number of complete or partial responses, and number with stable disease. The mean days of survival is the number of days after which a SKMES neoplasm reached a size of 1.5 g and the animal was euthanized. A complete response is obtained if the tumor is not palpable at the end of the study. A partial response is obtained if the tumor shrinks to a size smaller than its size on Day 1 of the study.\nA tumor scoring system was designed to provide a more quantitative ranking of efficacy (therapeutic potential) among the antitumor agents evaluated against the different human solid tumor xenografts. Each mouse in a study was given a score of from 1 to 10 at the end of the study. The scores can be summarized as follows:\nThe individual score for each mouse was averaged into a mean score for each treatment group. […]"}, "[4]": {"system": "SKMES Human Lung Carcinoma Xenograft", "conditions": "Group 3: 40 mg/kg single oral bolus Day 1, 6 mice, study to Day 60", "description": "The compound was administered as a single bolus by the oral route in a study to investigate the efficacy of this compound against the SKMES human lung cancer xenograft.\nFemale Nu/Nu mice (6-8 weeks of age; implanted with 1 mm^3 SKMES lung carcinoma fragments in the flank) were sorted into four treatment groups of six mice each. SKMES size ranges and group mean SKMES size ranges were 126-448 mg and 238-241 mg, respectively. […] Treatments were administered as a single oral bolus on Day 1, and the study was terminated on Day 60.\nThe results are summarized in Table 13 and include mean days of survival (MDS), number of toxic deaths, number of survivors, number of complete or partial responses, and number with stable disease. The mean days of survival is the number of days after which a SKMES neoplasm reached a size of 2.0 g and the animal was euthanized. A complete response is obtained if the tumor is not palpable at the end of the study. A partial response is obtained if the tumor shrinks to a size smaller than its size on Day 1 of the study.\nThe total response rate was 100% with four complete responses and two partial responses. The total response rate is defined as the percentage of evaluable animals (excluding deaths due to procedure or toxicity) in a group that experience complete or partial responses at the termination of the study."}, "[5]": {"conditions": "Group 4: i.v. qd x 1 at estimated MTD, 5 mice, study to Day 91"}, "[6]": {"conditions": "Group 4: 60 mg/kg i.v. qd x 1, 6 mice, study to Day 63"}, "[7]": {"conditions": "Group 2: 24 mg/kg i.v. qd x 1 (two split doses of 12 mg/kg), 5 mice, study to Day 91"}, "[8]": {"conditions": "Group 3: 18 mg/kg i.p. qd x 5, 5 mice, study to Day 91"}, "[9]": {"conditions": "Group 2: 24 mg/kg i.v. qd x 1 (two split doses of 12 mg/kg), 6 mice, study to Day 63"}, "[10]": {"conditions": "Group 3: 15 mg/kg i.p. qd x 5, 6 mice, study to Day 63"}}, "data": [{"smiles": "CCOC(=O)O[C@H]1C(=O)[C@@]2(C)[C@H]([C@H](OC(=O)c3ccccc3)[C@]3(O)C[C@H](OC(=O)[C@H](O)[C@H](C=C(C)C)NC(=O)OC(C)(C)C)C(C)=C1C3(C)C)[C@]1(OC(C)=O)CO[C@@H]1C[C@@H]2O", "note": "[Compound 1781]", "values": [{"measurement": "weight loss", "setting": "[1]; 1781 72.6 mg/kg i.v. qd x 1, in a number of treated mice prior to death", "result": "over 20%"}, {"measurement": "Complete Response", "setting": "[1]; [5]", "result": 0}, {"measurement": "Mean Score", "setting": "[1]; [5]", "result": "0 ± 0"}, {"measurement": "Partial Response", "setting": "[1]; [5]", "result": 0}, {"measurement": "Stable Disease", "setting": "[1]; [5]", "result": 0}, {"measurement": "Survivors", "setting": "[1]; [5]", "result": 0}, {"measurement": "Toxic Deaths", "setting": "[1]; [5]", "result": 5}, {"measurement": "overall response rate", "setting": "[2]; 1781 i.v. qd x 1 at estimated MTD", "result": 66.7, "unit": "%"}, {"measurement": "MDS (n)", "setting": "[2]; Group 4: 60 mg/kg i.v. qd x 1, 6 mice, n=2, study to Day 63", "result": "59.3 ± 2.9(2) days"}, {"measurement": "Complete Response", "setting": "[2]; [6]", "result": 0}, {"measurement": "Mean Score", "setting": "[2]; [6]", "result": "6.7 ± 1.2"}, {"measurement": "Partial Response", "setting": "[2]; [6]", "result": 4}, {"measurement": "Stable Disease", "setting": "[2]; [6]", "result": 0}, {"measurement": "Survivors", "setting": "[2]; [6]", "result": 4}, {"measurement": "Toxic Deaths", "setting": "[2]; [6]", "result": 0}, {"measurement": "Toxic Deaths", "setting": "[2]; i.v. qd x 1, Taxol 24 mg/kg, 1781 at estimated MTD, six mice per group", "result": "no toxic deaths"}, {"measurement": "mean group weight loss", "setting": "[2]; mouse, in vivo, iv", "result": "minimal"}, {"measurement": "tolerability", "setting": "[2]; mouse, in vivo, iv", "result": "well-tolerated"}]}, {"smiles": "CC(=O)O[C@H]1C(=O)[C@@]2(C)[C@H]([C@H](OC(=O)c3ccccc3)[C@]3(O)C[C@H](OC(=O)[C@H](O)[C@@H](NC(=O)c4ccccc4)c4ccccc4)C(C)=C1C3(C)C)[C@]1(OC(C)=O)CO[C@@H]1C[C@@H]2O", "note": "[Taxol]", "values": [{"measurement": "survival extension compared to vehicle controls", "setting": "[3]; Taxol 36 mg/kg i.v.", "result": 30, "unit": "%"}, {"measurement": "MDS (n)", "setting": "[3]; mean days of survival until tumor 1.5 g, i.v. split dose qd x 1, Taxol 36 mg/kg, 1755 49 mg/kg, six mice per group", "result": "16 ± 2.0 (6) days"}, {"measurement": "Toxic Deaths", "setting": "[3]; number of mice of six, i.v. split dose qd x 1, Taxol 36 mg/kg, 1755 49 mg/kg", "result": 0}, {"measurement": "Survivors", "setting": "[3]; number of mice of six, study ended Day 60", "result": 0}, {"measurement": "Stable Disease", "setting": "[3]; number of mice of six, tumor below 1.5 g at end of study", "result": 0}, {"measurement": "Complete Response", "setting": "[3]; number of mice of six, tumor not palpable at end of study", "result": 0}, {"measurement": "Partial Response", "setting": "[3]; number of mice of six, tumor smaller than on Day 1", "result": 0}, {"measurement": "Mean Score", "setting": "[3]; tumor score 1 to 10 per mouse, averaged per group (10 = complete response)", "result": "1.3 ± 0.3"}, {"measurement": "MDS (n)", "setting": "[1]; Group 2: 24 mg/kg i.v. qd x 1 (two split doses of 12 mg/kg), 5 mice, n=3, 1.5 g endpoint, study to Day 91", "result": "37.4 ± 8.9 (3) days"}, {"measurement": "Complete Response", "setting": "[1]; [7]", "result": 0}, {"measurement": "Mean Score", "setting": "[1]; [7]", "result": "2 ± 1"}, {"measurement": "Partial Response", "setting": "[1]; [7]", "result": 0}, {"measurement": "Stable Disease", "setting": "[1]; [7]", "result": 1}, {"measurement": "Survivors", "setting": "[1]; [7]", "result": 1}, {"measurement": "Toxic Deaths", "setting": "[1]; [7]", "result": 1}, {"measurement": "Complete Response", "setting": "[1]; [8]", "result": 0}, {"measurement": "Mean Score", "setting": "[1]; [8]", "result": "0 ± 0"}, {"measurement": "Partial Response", "setting": "[1]; [8]", "result": 0}, {"measurement": "Stable Disease", "setting": "[1]; [8]", "result": 0}, {"measurement": "Survivors", "setting": "[1]; [8]", "result": 0}, {"measurement": "Toxic Deaths", "setting": "[1]; [8]", "result": 5}, {"measurement": "weight loss", "setting": "[1]; Taxol 18 mg/kg i.p. qd x 5", "result": "more than 20%"}, {"measurement": "mice died of drug-related side effects", "setting": "[1]; Taxol 18 mg/kg i.p. qd x 5, five mice", "result": "five"}, {"measurement": "increase in survival compared to Group 1 controls", "setting": "[1]; Taxol 24 mg/kg i.v. qd x 1", "result": 9, "unit": "%"}, {"measurement": "MDS", "setting": "[1]; Taxol 24 mg/kg i.v. qd x 1, 1.5 g endpoint, three of five animals", "result": 37.4, "unit": "days"}, {"measurement": "MDS (n)", "setting": "[2]; Group 2: 24 mg/kg i.v. qd x 1 (two split doses of 12 mg/kg), 6 mice, n=4, study to Day 63", "result": "34.7 ± 3.4(4) days"}, {"measurement": "Complete Response", "setting": "[2]; [9]", "result": 0}, {"measurement": "Mean Score", "setting": "[2]; [9]", "result": "2.2 ± 0.8"}, {"measurement": "Partial Response", "setting": "[2]; [9]", "result": 0}, {"measurement": "Stable Disease", "setting": "[2]; [9]", "result": 1}, {"measurement": "Survivors", "setting": "[2]; [9]", "result": 1}, {"measurement": "Complete Response", "setting": "[2]; [10]", "result": 0}, {"measurement": "Mean Score", "setting": "[2]; [10]", "result": "1.2 ± 1.2"}, {"measurement": "Partial Response", "setting": "[2]; [10]", "result": 1}, {"measurement": "Stable Disease", "setting": "[2]; [10]", "result": 0}, {"measurement": "Survivors", "setting": "[2]; [10]", "result": 1}, {"measurement": "MDS", "setting": "[2]; Taxol 24 mg/kg i.v. qd x 1, four mice, 1.5 g cut-off", "result": 34.7, "unit": "days"}, {"measurement": "Toxic Deaths", "setting": "[2]; female, NCr-nude, mouse, in vivo", "result": 1}, {"measurement": "Toxic Deaths", "setting": "[2]; female, NCr-nude, mouse, in vivo, ip, 15 mg/kg", "result": 4}, {"measurement": "Stable Disease", "setting": "[2]; number of cases, Taxol 24 mg/kg i.v. qd x 1, six mice", "result": "one"}, {"measurement": "MDS (n)", "setting": "[4]; n=6, 2.0 g endpoint", "result": "13.2 ± 1.4(6) days"}, {"measurement": "% Total Response", "setting": "[4]", "result": 0, "unit": "%"}, {"measurement": "Complete Response", "setting": "[4]", "result": 0}, {"measurement": "Partial Response", "setting": "[4]", "result": 0}, {"measurement": "Stable Disease", "setting": "[4]", "result": 0}, {"measurement": "Survivors", "setting": "[4]", "result": 0}, {"measurement": "Toxic Deaths", "setting": "[4]", "result": 0}]}]}
